Source: patent publication US20040010021A1, “Pharmaceutical compositions for the treatment of depression or symptoms suggesting depression” (priority 2000, published 2004)
“Also recorded” adds a separate entry of the source.

Assays:
[1] = system: patients; settings: cited from earlier work; for depression as adverse effect (literature): literature and Physicians' Desk Reference
[2] = system: patients; settings: 4-week clinical study
From the text: This is followed by a four-week (week 0-4) H2-blocker therapy performed on the basis of the former randomization applying either Quamatel®- or Zantac®—therapy. During randomization they have also taken the female-male ratio into consideration.
(§1) The describing statistics (median, quartiles, average, dispersion, case-number, minimum and maximum values) were given for all numerical data variables (age, body weight, height, overall scores for HAMD and MADRS, as well as HAMA). […] The global parameters (the patient's opinion of the changes in the mood and the general condition, the physician's opinion of the general condition of the patient, and the psychiatrist's opinion of the changes in depression and anxiety) were assessed by applying the median-test (SAS NPAR1 WAY method).

[3] = system: patients; experiment: Hamilton 24 (HAMD) depression scale, multicenter randomized controlled clinical study; type: in vivo, human; settings: conclusion from the 4-week clinical study, vs ranitidine-group and baseline
From the text: The number of cases investigated was 119, which assured that the obtained data reach the level of statistical significance. […] During the statistical evaluation a probability level of p≦0.05 was regarded as significant.
Multicenter, randomized, controlled study; the study can be regarded blind with respect to the psychiatrist's assessment of the results.
4-week treatment period with the administration of the test—or reference medication.
On the occasion of the 1st visit (week-1-0) the recording of the medical history, physical examination, endoscopy (optional), the signing of the consent form, then the assessment of the extent of anxiety during the psychiatric examination, by using the Hamilton 24 (HAMD) and the MADRS (Montgomery Asberg) depression scales as well as the Hamilton Anxiety Rating Scale (HAMA). […]
as §1

Compound	depression as adverse effect (literature) [1]	gastrointestinal efficacy compared with ranitidine [2]	efficacy in schizophrenia (literature case studies) ([1]; case studies)	antidepressant / depression-reducing effect, conclusion of the study [3]
CNC(=C[N+](=O)[O-])NCCSCc1ccc(CN(C)C)o1 [ranitidine]	development of depression could be unquestionably associated with ranitidine-therapy			
CN/C(=N/CCSCc1nc[nH]c1C)NC#N [cimetidine]	marked depressant effect			
NC(N)=Nc1nc(CSCCC(N)=NS(N)(=O)=O)cs1 [famotidine]	depression as one of the adverse reactions	practically displaying the same gastrointestinal efficacy	effective in the management of schizophrenia	specific depression-reducing effect; also recorded: significantly detectable antidepressant effect
